In paper PMC5459885, “Relaxin-Family Peptide Receptors 1 and 2 Are Fully Functional in the Bovine” (Frontiers in Physiology, 2017):
Entries after “also recorded” stand apart in the source; their conditions may differ.

B1: bovine INSL3 (protein, UniProt O77801 22-66; O77801 27-66; O77801 107-132, looked up)
Insulin-like 3 B' chain: GPAAAQEAPEKLCGHHFVRALVRLCGGPRWSSEEDGRPVAGGDRE
Insulin-like 3 B chain: QEAPEKLCGHHFVRALVRLCGGPRWSSEEDGRPVAGGDRE
Insulin-like 3 A chain: ATAINPARHCCLSGCTRQDLLTLCPH
notes: bovine insulin-like peptide 3, cognate ligand of bovine RXFP2
B2: human INSL3 (protein, UniProt P51460 21-55; P51460 106-131, looked up)
Insulin-like 3 B chain: LGPAPTPEMREKLCGHHFVRALVRVCGGPRWSTEA
Insulin-like 3 A chain: AAATNPARYCCLSGCTQQDLLTLCPY
notes: human insulin-like peptide 3

Tests used:
bRXFP1 = test: cAMP production, HEK293T cells transiently transfected with bRXFP1; assay type: cell-based, bovine; details: for EC50: bRXFP1, transient transfection HEK293T, 20 min stimulation, cAMP by TRFIA, three-parameter non-linear regression, pRLN converted to nM assuming MW 6 kD and purity 85%, bINSL3 curve had not reached an asymptote at highest concentration; for stimulation of cAMP production: bRXFP1, within the range of concentration applied (Figure 9A)
Description: (§1) Preliminary studies, prior to the publication of the bovine genome project, had employed heterologous RT-PCR primers, derived from human sequence information, together with RNA from selected bovine tissues. Initial sequence information obtained was subsequently fully confirmed by the bovine genome project, which is used here for reference. Having confirmed by RT-PCR the correct sequences for the full-length functional bRXFP1 and bRXFP2 transcripts, expression constructs were generated, whereby the signal peptides of the two receptor sequences were replaced by the signal peptide-encoding sequence from the bovine prolactin gene, together with an intermediate short FLAG sequence, exactly as used previously for the expression of the human RXFP1 and RXFP2, and other G-protein coupled receptors (Hsu et al., [2000], [2002]). The two final bovine constructs were generated from assembled multiple oligonucleotides (custom gene synthesis by GeneArt, Regensburg, Germany), their sequences confirmed, and inserted into the vector pcDNA3.1/Zeo(+) (Invitrogen) for expression.
(§2) For transfection, the Neon electroporation system (Invitrogen) was used: the bRXFP1 or bRXFP2 expression plasmids were mixed with HEK 293T cells in a ratio of ~0.2 μg DNA/50,000 cells/well (48-well plate), and pulsed at 1,300 V for 30 ms to transfect the DNA into the cells. Plasmids were allowed to express for 24 h with the transfected cells cultured in DMEM/F12 (1:1) at 37°C with 5% CO2. In parallel, HEK 293T cells which had been permanently transfected with human RXFP1 or human RXFP2 (Heng et al., [2008]) were plated at 50,000 cells/well in a 48-well plate, and cultured overnight in DMEM/F12 (1:1) with 10% bovine fetal serum, 2 mM L-glutamine and 1% Penicillin-Streptomycin at 37°C with 5% CO2.
(§3) For the transient and permanently transfected HEK 293T cells and the primary myometrial (6,000 cells/well) and theca cells (20,000 cells/well), after the initial pre-culture period (as above) medium was changed and supplemented or not with 1 mM IBMX (3-isobutyl-1-methylxanthine; Sigma) as indicated (30 min for myometrial cells, 10 min for theca cells). Following this pre-incubation, cells were supplemented or not with various peptides, also as indicated in the figure legends, and incubation continued for a further 20 min. Total cAMP was extracted from the combined cells and culture medium from each well and measured by time-resolved fluorescent immunoassay (TRFIA) as described in Anand-Ivell et al. ([2007]). cAMP production by the transfected HEK 293 cells was measured directly (range1–243 pmol/ml); cAMP from primary myometrial and theca cells made use of the more sensitive TRFIA employing sample acetylation (detection range 0.04–9.72 pmol/ml).
(§4) All data were analyzed and plotted using GraphPad Prism 6. The EC50 values were calculated by non-linear regression of log (agonist) against response (three parameter). All column data were analyzed by ANOVA followed by Neuman-Keuls post-hoc test.

hRXFP1 = test: cAMP production, HEK 293T cells permanently transfected with hRXFP1; assay type: cell-based, human; details: hRXFP1, permanently transfected HEK 293T, 20 min stimulation, cAMP by TRFIA, three-parameter non-linear regression, pRLN converted to nM assuming MW 6 kD and purity 85%
Protocol: as §2, §3, §4

bRXFP2 = test: cAMP production, HEK293T cells transiently transfected with bRXFP2; assay type: cell-based, bovine; details: for stimulation of cAMP production: bRXFP2 (Figure 9B, Table 1); for EC50: bRXFP2, transient transfection HEK293T, 20 min stimulation, cAMP by TRFIA, three-parameter non-linear regression, pRLN converted to nM assuming MW 6 kD and purity 85%
Description: as §1, §2, §3, §4

hRXFP2 = test: cAMP production, HEK 293T cells permanently transfected with hRXFP2; assay type: cell-based, human; details: for EC50: hRXFP2, permanently transfected HEK 293T, 20 min stimulation, cAMP by TRFIA, three-parameter non-linear regression, pRLN converted to nM assuming MW 6 kD and purity 85%, its curve had not reached an asymptote at highest concentration
Protocol: as §2, §3, §4

bovine myometrial cells = test: cAMP production in primary bovine myometrial cells; assay type: cell-based; details: 20 min, 1 mM IBMX (Figure 8A)
Protocol: Bovine tissues were obtained from the local slaughterhouse. Tissue collection was in accordance with German, British and European laws and provisions for ethical regulation. Cumulus-oocyte complexes (COCs) were collected and categorized exactly as in Janowski et al. ([2012]). For oocyte RNA preparation, COCs were mechanically denuded using a glass pipette followed by a 2 min trypsin incubation (1x Trypsin-EDTA solution; T4174; Sigma, Deisenhofen, Germany) to remove residual cumulus cells, then frozen at −80°C. Bovine myometrial cells were prepared from excised uteri exactly as in Heng et al. ([2008]). The isolated myometrial cells were plated at 6,000 cells/well in a 48-well plate and cultured at 37°C with 5% CO2 for 5 days before stimulation. Bovine ovaries without an obvious corpus luteum were selected for the isolation of granulosa and theca interna cells from mid-phase antral follicles (ca. 6–10 mm diameter) using standard procedures (Holtorf et al., [1989]; Bathgate et al., [1999]). Follicular fluid, including COCs and granulosa cells, was aspirated from the follicles, and collected in granulosa culture medium (DMEM/F-12 (1:1) with 1% bovine fetal serum, 1% antibiotic-antimycotic (ABAM), 2 mM L-glutamine). After manually removing the COCs, the granulosa cells were harvested by centrifugation (150 g, 10 min) and rinsed once with culture medium as above. Four to six millimeters follicles were obtained by dissection. The theca interna layer of mid-phase antral follicles was peeled off and digested with collagenase IV (1 mg/ml) in Medium 199, including trypsin inhibitor (100 μg/ml) at 38°C for 1 h. The isolated theca cells were collected and washed in Medium 199 with 1% ABAM. […]
as §3, with “Following this pre-incubation, cells were supplemented or not with various peptides, also as indicated in the figure legends, and incubation continued for a further 20 min.” left out
as §4

beef cows = details: applied locally or systemically to beef cows at term; ref Musah et al., 1987; cited from earlier work
Description: (§5) For many years there has been a controversy surrounding the existence or not of relaxin in ruminants, including cattle, sheep, and goats (Hartung et al., [1995]). A RLN2 homologous molecule is definitely expressed at the mRNA and/or protein levels in related ungulates, such as pigs, camels, llamas, and horses (James et al., [1977]; Stewart et al., [1991]; Bravo et al., [1996]; Hombach-Klonisch et al., [2000]; ncbi database: www-ncbi-nlm-nih-gov).

bovine luteal cells = bovine luteal cells in culture; ref Musah et al., 1990; cited from earlier work
Description: as §5

bovine sperm = details: ref Miah et al., 2011; cited from earlier work
Description: as §5

RXFP1 = details: ref Bathgate et al., 2006; cited from earlier work
Description: The relaxin family of peptide hormones includes, besides relaxin (RLN2), also relaxin 3 (RLN3), insulin-like peptide 3 (INSL3), INSL5, and INSL6. Additionally, within higher primates and humans there is RLN1 and INSL4. […] RLN2 and INSL3 on the other hand are usually expressed in reproductive tissues of both sexes and ...

bovine theca cells = test: cAMP production in primary bovine theca cells; assay type: cell-based; details: 20 min, 1 mM IBMX (Figure 8B,C)
Protocol: Bovine tissues were obtained from the local slaughterhouse. Tissue collection was in accordance with German, British and European laws and provisions for ethical regulation. Cumulus-oocyte complexes (COCs) were collected and categorized exactly as in Janowski et al. ([2012]). For oocyte RNA preparation, COCs were mechanically denuded using a glass pipette followed by a 2 min trypsin incubation (1x Trypsin-EDTA solution; T4174; Sigma, Deisenhofen, Germany) to remove residual cumulus cells, then frozen at −80°C. Bovine myometrial cells were prepared from excised uteri exactly as in Heng et al. ([2008]). […]
as §3, with “Following this pre-incubation, cells were supplemented or not with various peptides, also as indicated in the figure legends, and incubation continued for a further 20 min.” left out, “pmol/ml). […]” for “pmol/ml).”

Molecule	EC50 (bRXFP1)	stimulation of cAMP production (bRXFP1)	EC50 (hRXFP1)	stimulation of cAMP production (bRXFP2)	EC50 (bRXFP2)	EC50 (hRXFP2)	cAMP production (bovine myometrial cells)	also measured
porcine relaxin [pRLN]	10.8 nM	showed any stimulation within the range of concentration applied	0.4 nM	could stimulate at very high concentration	10.5 nM	> 12 nM	significant stimulation was observed at all concentrations applied	EC50 (hRXFP1; listed as porcine RLN): < 1 nM; softening and dilatation response (beef cows): elicited a classic softening and dilatation response, thereby influencing calving period; oxytocin production (bovine luteal cells): significantly suppressed oxytocin production
recombinant human relaxin [rhRLN]	48.7 nM	showed any stimulation within the range of concentration applied	0.9 nM	could stimulate at very high concentration	27.3 nM	53.9 nM	–	EC50 (hRXFP1; listed as human RLN): < 1 nM
relaxin	–	–	–	–	–	–	significant increase in cAMP	sperm functional parameters (bovine sperm): significantly to affect bovine sperm functional parameters
relaxin 3 [hRLN3]	97.9 nM	showed any stimulation within the range of concentration applied	14.6 nM	unable to stimulate	–	–	–	stimulation of cAMP production (bRXFP2; listed as RLN3): but not RLN3, could stimulate at very high concentration; stimulation of cAMP production (hRXFP2; hRXFP2 (Table 1)): unable to stimulate; affinity at RXFP1 (RXFP1): reduced affinity
B1	–	–	–	effective at low concentrations	0.7 nM	0.6 nM	–	EC50 (bRXFP2; listed as bovine INSL3): < 1 nM; cAMP production (bovine myometrial cells; listed as INSL3): significant increase in cAMP; cAMP production (bovine myometrial cells; listed as bovine INSL3): significant stimulation was observed at all concentrations applied; cAMP production (bovine theca cells): dose-dependent increase in cAMP; also recorded: able significantly to stimulate cAMP production in a dose-dependent manner
B2	–	–	–	–	0.6 nM	0.7 nM	–	–
